Laboratory results reported in patent publication US6303630A, “Diarylsulfone non-nucleoside reverse transcriptase inhibitors of human immunodeficiency virus” (University of the Sciences in Philadelphia, priority 2000, dated 2001).
Where two headings read alike, the source gives them in different places.

Tests used:
HIV-1 = experiment: NCI in vitro anti-HIV drug screen: XTT-formazan assay, protection of T4 lymphocytes (CEM) from HIV-1 cytopathic effects; type: cell-based, human immunodeficiency virus (HIV-1); conditions: for EC50: 144 h, HIV-1 infected CEM cells, 6 days, XTT, approximate values, read-out: EC50 (50% effective concentration against HIV cytopathic effects); for inhibition at 200 µM / activity at 200 µM: dose 2.00 × 10^-4 Molar; for inhibition at 20 µM / activity at 20 µM: dose 2.00 × 10^-5 Molar; for inhibition at 2 µM / activity at 2 µM: dose 2.00 × 10^-6 Molar; for inhibition at 0.2 µM / activity at 0.2 µM: dose 2.00 × 10^-7 Molar; for inhibition at 63.2 µM / activity at 63.2 µM: dose 6.32 × 10^-5 Molar; for inhibition at 6.33 µM / activity at 6.33 µM: dose 6.33 × 10^-6 Molar; for inhibition at 0.0635 µM / activity at 0.0635 µM: dose 6.35 × 10^-8 Molar; for TI50 (IC/EC), Therapeutic Index: IC50/EC50
Description: Compounds of the present invention were evaluated for anti-HIV efficacy by the National Cancer Institute's (NCI) In Vitro Anti AIDS Drug Discovery Program.
(§1) The NCI procedure is fully described, for example, in a bulletin provided by the National Institutes of Health, National Cancer Institute, Bethesda, Md. 20892, all of which is incorporated herein by reference. As related in the NCI bulletin, the procedure is based on O. W. Weislow et al., "New soluble-formazan assay for HIV-1 cytopathic effects: application to high flux screening of synthetic and natural products for AIDS-antiviral activity", J. Natl. Cancer Inst. 81:577-586 (1989), and is used to test for compounds active against human immunodeficiency virus (HIV), and is designed to detect compounds active at any stage of the virus reproductive cycle. As further related in the NCI bulletin, the assay includes killing of T4 lymphocytes by HIV. Amounts of HIV are added to cells, with a minimum of two cycles of virus reproduction found to be necessary to obtain the required cell killing. Compounds that interact with virions, cells, or virus gene-products to interfere with viral activities will protect cells from cytolysis. All were compared with a positive (e.g., AZT-treated) control evaluation at the same time under identical conditions. The procedure is set forth as follows:
(§2) A candidate compound is first dissolved in a suitable solvent, preferably dimethyl sulfoxide, then diluted 1:100 in cell culture medium before preparing serial half-log10 dilutions. T4 lymphocytes (CEM cell line) are then added and after a brief interval HIV-1 is added, resulting in a 1:200 final dilution of the compound. Uninfected cells with the compound serve as a toxicity control, and infected and uninfected without the compound serve as basic controls. Cultures are then incubated at 37° in a 5% carbon dioxide atmosphere for 6 days. The tetrazolium salt, XTT, is added to all wells, and cultures are incubated to allow formazan color development by viable cells. Individual wells are analyzed spectrophotometrically to quantitate formazan product, and in addition are viewed microscopically for detection of viable cells and confirmation of protective activity. Drug-treated virus-infected cells are compared with drug-treated noninfected cells and with other appropriate controls (untreated infected and untreated noninfected cells, drug-containing wells without cells, etc.) on the same plate. Data are reviewed in comparison with other tests performed at the same time and a determination as to activity is made.

[1] = test system: T4 lymphocytes (CEM cell line); experiment: Cell growth / toxicity control in uninfected T4 lymphocytes (CEM), XTT-formazan; type: cell-based; conditions: Homo sapiens, CCRF-CEM; for IC50: 144 h, uninfected CEM cells, 6 days, XTT, approximate values, read-out: IC50 (50% inhibitory concentration for cell growth); for activity at 200 µM: dose 2.00 × 10^-4 Molar; for activity at 20 µM: dose 2.00 × 10^-5 Molar; for activity at 2 µM: dose 2.00 × 10^-6 Molar; for activity at 0.2 µM: dose 2.00 × 10^-7 Molar; for activity at 63.2 µM: dose 6.32 × 10^-5 Molar; for activity at 6.33 µM: dose 6.33 × 10^-6 Molar; for activity at 0.634 µM: dose 6.34 × 10^-7 Molar; for activity at 0.0635 µM: dose 6.35 × 10^-8 Molar
Description: as §1, §2

[2] = Human immunodeficiency virus 1, CCRF-CEM
[3] = Human immunodeficiency virus 1, CCRF-CEM, read-out: Percent of Protection
[4] = Human immunodeficiency virus 1, Lymphocyte, read-out: Percent of Control, Infected
[5] = Human immunodeficiency virus 1, Lymphocyte, dose 6.34 × 10^-7 Molar, read-out: Percent of Control, Infected
[6] = read-out: Percent of Control, Uninfected

In the case of `CNc1ccccc1S(=O)(=O)c1ccc(Cl)cc1OC` [Compound 86, 2-(4-chloro-2-methoxyphenylsulfonyl)-N-methylaniline], the EC50 (HIV-1; [2]) is reported as 106 µM, the inhibition at 200 µM (HIV-1; [3]) is reported as 78.8% and the inhibition at 20 µM (HIV-1; [3]) is reported as 5.32%. It also gave an inhibition at 2 µM (HIV-1; [3]) of 0.36%, an inhibition at 0.2 µM (HIV-1; [3]) of 1.18% and an inhibition at 63.2 µM (HIV-1; [3]) of 27.1%. For the same compound, the inhibition at 6.33 µM (HIV-1; [3]) was 1.52%, the inhibition at 0.634 µM (HIV-1; Human immunodeficiency virus 1, CCRF-CEM, dose 6.34 × 10^-7 Molar, read-out: Percent of Protection) was 1.22% and the inhibition at 0.0635 µM (HIV-1; [3]) was 0.03%. It also gave an activity at 200 µM (HIV-1; [4]) of 79.2%, an activity at 20 µM (HIV-1; [4]) of 7.21% and an activity at 2 µM (HIV-1; [4]) of 2.35%. It also gave an activity at 0.2 µM (HIV-1; [4]) of 3.16%, an activity at 63.2 µM (HIV-1; [4]) of 28.5% and an activity at 6.33 µM (HIV-1; [4]) of 3.49%. The activity at 0.634 µM (HIV-1; [5]) was 3.2%, the activity at 0.0635 µM (HIV-1; [4]) was 2.03% and the “TI50 (IC/EC), Therapeutic Index” value (HIV-1) was > 1.88 × 10^0. The IC50 [1] was > 200 µM, the activity at 200 µM [1, 6] was 83.9% and the activity at 20 µM [1, 6] was 88.3%. It also gave an activity at 2 µM [1, 6] of 96.5%, an activity at 0.2 µM [1, 6] of 91.7% and an activity at 63.2 µM [1, 6] of 95.9%. The activity at 6.33 µM [1, 6] was 94.8%, the activity at 0.634 µM [1, 6] was 97.1% and the activity at 0.0635 µM [1, 6] was 95.8%.
Compound `CNc1ccc(S(=O)(=O)c2ccccc2[N+](=O)[O-])cc1C` [Compound 79, 4-(2-nitrophenyisulfonyl)-N,2-dimethylaniline] has an EC50 (HIV-1; [2]) of 0.183 µM, an inhibition at 200 µM (HIV-1; [3]) of 10.7% and an inhibition at 20 µM (HIV-1; [3]) of 78.6%. It also gave an inhibition at 2 µM (HIV-1; [3]) of 97%, an inhibition at 0.2 µM (HIV-1; [3]) of 53.9% and an inhibition at 63.2 µM (HIV-1; [3]) of 10.1%. For the same compound, the inhibition at 6.33 µM (HIV-1; [3]) was 103%, the inhibition at 0.0635 µM (HIV-1; [3]) was 7.87% and the inhibition at 0.634 µM (HIV-1; Human immunodeficiency virus 1, CCRF-CEM, read-out: Percent of Protection, dose 6.34 × 10^-7 Molar) was 65%. For the same compound, the activity at 200 µM (HIV-1; [4]) was 15.2%, the activity at 20 µM (HIV-1; [4]) was 79.7% and the activity at 2 µM (HIV-1; [4]) was 97.2%. The activity at 0.2 µM (HIV-1; [4]) was 56.2%, the activity at 63.2 µM (HIV-1; [4]) was 14.6% and the activity at 6.33 µM (HIV-1; [4]) was 103%. The activity at 0.634 µM (HIV-1; [5]) was 66.8%, the activity at 0.0635 µM (HIV-1; [4]) was 12.5% and the “TI50 (IC/EC), Therapeutic Index” value (HIV-1) was 1.79 × 10^-2. The IC50 [1] was 32.7 µM, the activity at 200 µM [1, 6] was 11.9% and the activity at 20 µM [1, 6] was 76.9%. It also gave an activity at 2 µM [1, 6] of 94%, an activity at 0.2 µM [1, 6] of 97.1% and an activity at 63.2 µM [1, 6] of 13.9%. It also gave an activity at 6.33 µM [1, 6] of 98.2%, an activity at 0.634 µM [1, 6] of 93% and an activity at 0.0635 µM [1, 6] of 107%.
`CNc1c(Cl)cccc1S(=O)(=O)c1ccccc1[N+](=O)[O-]` [Compound 78, 2-(2-nitrophenylsulfonyl)-6-chloro-N-methylaniline] gave an EC50 (HIV-1; [2]) of 0.22 µM, an inhibition at 20 µM (HIV-1; [3]) of 89.5% and an inhibition at 2 µM (HIV-1; [3]) of 93.9%. For the same compound, the inhibition at 0.2 µM (HIV-1; [3]) was 45.9%, the inhibition at 0.02 µM (HIV-1; Human immunodeficiency virus 1, CCRF-CEM, dose 2.00 × 10^-8 Molar, read-out: Percent of Protection) was 8.88% and the inhibition at 6.32 µM (HIV-1; Human immunodeficiency virus 1, CCRF-CEM, dose 6.32 × 10^-6 Molar, read-out: Percent of Protection) was 96%. The inhibition at 0.633 µM (HIV-1; Human immunodeficiency virus 1, CCRF-CEM, dose 6.33 × 10^-7 Molar, read-out: Percent of Protection) was 100%, the inhibition at 0.0634 µM (HIV-1; Human immunodeficiency virus 1, CCRF-CEM, dose 6.34 × 10^-8 Molar, read-out: Percent of Protection) was 12.2% and the inhibition at 0.00635 µM (HIV-1; Human immunodeficiency virus 1, CCRF-CEM, dose 6.35 × 10^-9 Molar, read-out: Percent of Protection) was 2.69%. It also gave an activity at 20 µM (HIV-1; [4]) of 89.8%, an activity at 2 µM (HIV-1; [4]) of 94.1% and an activity at 0.2 µM (HIV-1; [4]) of 47%. The activity at 0.02 µM (HIV-1; Human immunodeficiency virus 1, Lymphocyte, dose 2.00 × 10^-8 Molar, read-out: Percent of Control, Infected) was 10.7%, the activity at 6.32 µM (HIV-1; Human immunodeficiency virus 1, Lymphocyte, dose 6.32 × 10^-6 Molar, read-out: Percent of Control, Infected) was 96% and the activity at 0.633 µM (HIV-1; Human immunodeficiency virus 1, Lymphocyte, dose 6.33 × 10^-7 Molar, read-out: Percent of Control, Infected) was 100%. For the same compound, the activity at 0.0634 µM (HIV-1; Human immunodeficiency virus 1, Lymphocyte, dose 6.34 × 10^-8 Molar, read-out: Percent of Control, Infected) was 13.9%, the activity at 0.00635 µM (HIV-1; Human immunodeficiency virus 1, Lymphocyte, dose 6.35 × 10^-9 Molar, read-out: Percent of Control, Infected) was 4.64% and the “TI50 (IC/EC), Therapeutic Index” value (HIV-1) was > 9.08 × 10^+1. The IC50 [1] was > 20 µM, the activity at 20 µM [1, 6] was 85.5% and the activity at 2 µM [1, 6] was 85.6%. It also gave an activity at 0.2 µM [1, 6] of 85.2%, an activity at 0.02 µM ([1]; dose 2.00 × 10^-8 Molar, read-out: Percent of Control, Uninfected) of 92.2% and an activity at 6.32 µM ([1]; dose 6.32 × 10^-6 Molar, read-out: Percent of Control, Uninfected) of 91.5%. The activity at 0.633 µM ([1]; dose 6.33 × 10^-7 Molar, read-out: Percent of Control, Uninfected) was 86.4%, the activity at 0.0634 µM ([1]; dose 6.34 × 10^-8 Molar, read-out: Percent of Control, Uninfected) was 87.4% and the activity at 0.00635 µM ([1]; dose 6.35 × 10^-9 Molar, read-out: Percent of Control, Uninfected) was 88.5%.
